{
  "source": "paper PMC3214022",
  "about": "“Plasmodium falciparum Parasites Are Killed by a Transition State Analogue of Purine Nucleoside Phosphorylase in a Primate Animal Model” (PLoS ONE, 2011)",
  "test": "Weights, CBC, blood chemistry and signs of toxicity, Table S1 sheet PD-2 (infected Aotus, twice a day for seven days)",
  "type": "in vivo, Aotus lemurinus lemurinus",
  "conditions": "oral 10 mg/kg twice a day/7 days, 25044 Male (ITM2)",
  "experimental": "Laboratory bred Aotus lemurinus lemurinus monkeys (0.75–0.89 kg) were maintained as described. […] Blood samples were collected before the treatment started (t = 0), 0.05 h, 0.5 h, 1 h, 2 h, 6 h, 24 h, 48 h, and 6, 12 and 18 days after the first dose from each monkey and processed as described below. Pharmacokinetic parameters were calculated using PKSolver. For efficacy studies, Aotus monkeys were inoculated intravenously with 5×10^6 parasites of the FVO strain of P. falciparum in an approved treatment protocol. […] Parasitaemia was determined by Giemsa-stained thick blood smears prepared daily from the marginal ear vein [41]. Blood samples were collected from each monkey and transferred to tubes containing lithium heparin, centrifuged and both plasma and blood cells were frozen at −80 °C until analysis. Animals received a physical examination and blood chemistry profiles were monitored after treatment as described previously. Any monkey not responding appropriately to treatment was cured of its infection with mefloquine (40 mg kg^−1). […] The day of clearance is defined as the first of three consecutive days in which the thick blood films are parasite negative. The day of recrudescence is the first of three consecutive days of positive thick blood films after a period of clearance. Suppression is defined as a transient decrease in the parasite count post-treatment without clearance.",
  "data": [
    {"molecule": "Nc1nc2c(CN3CC(O)C(CO)C3)c[nH]c2c(=O)[nH]1", "note": "(stereo not shown) [BCX4945, 4′-deaza-1′-aza-2′-deoxy-1′-(9-methylene)-Immucillin-G]", "values": [
      {"measurement": "Blood Urea Nitrogen", "setting": "day 8", "value": 14.7, "unit": "mg/dL"},
      {"measurement": "Creatine", "setting": "day 8", "value": 0.5, "unit": "mg/dL"},
      {"measurement": "Erythrocytes", "setting": "day 8", "value": "4.72e+06", "unit": "µL⁻¹"},
      {"measurement": "Glutamate Pyruvate Transaminase", "setting": "day 8", "value": 18.8, "unit": "U/L"},
      {"measurement": "Granulocytes (%)", "setting": "day 8", "value": 14.6, "unit": "%"},
      {"measurement": "Granulocytes (x 103/ul)", "setting": "day 8", "value": "2.8 x 103/ul"},
      {"measurement": "Hematocrit", "setting": "day 8", "value": 36.6, "unit": "%"},
      {"measurement": "Hemoglobin", "setting": "day 8", "value": 12.9, "unit": "g/dL"},
      {"measurement": "Leucocytes", "setting": "day 8", "value": 18900, "unit": "µL⁻¹"},
      {"measurement": "Lymphocytes (%)", "setting": "day 8", "value": 74.4, "unit": "%"},
      {"measurement": "Lymphocytes (x 103/ul)", "setting": "day 8", "value": "14.1 x 103/ul"},
      {"measurement": "Mean Corpuscular Volume", "setting": "day 8", "value": 77.6, "unit": "fL"},
      {"measurement": "Mean Hemoglobin Content", "setting": "day 8", "value": 35.3, "unit": "g/dL"},
      {"measurement": "Mean Platelet Volume", "setting": "day 8", "value": 11.8, "unit": "fL"},
      {"measurement": "Monocytes (%)", "setting": "day 8", "value": 11, "unit": "%"},
      {"measurement": "Monocytes (x 103/ul)", "setting": "day 8", "value": "2.1 x 103/ul"},
      {"measurement": "Platelets", "setting": "day 8", "value": 276000, "unit": "µL⁻¹"},
      {"measurement": "Red Cell Distribution Width", "setting": "day 8", "value": 16.9, "unit": "%"},
      {"measurement": "Reticulocytes", "setting": "day 8", "value": 1.8, "unit": "%"},
      {"measurement": "WEIGHT", "setting": "day 8", "value": 820, "unit": "g"},
      {"measurement": "Blood Urea Nitrogen", "setting": "day 12", "value": 12.6, "unit": "mg/dL"},
      {"measurement": "Creatine", "setting": "day 12", "value": 0.5, "unit": "mg/dL"},
      {"measurement": "Erythrocytes", "setting": "day 12", "value": "4.24e+06", "unit": "µL⁻¹"},
      {"measurement": "Glutamate Pyruvate Transaminase", "setting": "day 12", "value": 48.0, "unit": "U/L"},
      {"measurement": "Granulocytes (%)", "setting": "day 12", "value": 20, "unit": "%"},
      {"measurement": "Granulocytes (x 103/ul)", "setting": "day 12", "value": "2.6 x 103/ul"},
      {"measurement": "Hematocrit", "setting": "day 12", "value": 33.5, "unit": "%"},
      {"measurement": "Hemoglobin", "setting": "day 12", "value": 11.4, "unit": "g/dL"},
      {"measurement": "Leucocytes", "setting": "day 12", "value": 13200, "unit": "µL⁻¹"},
      {"measurement": "Lymphocytes (%)", "setting": "day 12", "value": 68.9, "unit": "%"},
      {"measurement": "Lymphocytes (x 103/ul)", "setting": "day 12", "value": "9.1 x 103/ul"},
      {"measurement": "Mean Corpuscular Hemoglobin", "setting": "day 12", "value": 27, "unit": "pg"},
      {"measurement": "Mean Corpuscular Volume", "setting": "day 12", "value": 78.9, "unit": "fL"},
      {"measurement": "Mean Hemoglobin Content", "setting": "day 12", "value": 34.2, "unit": "g/dL"},
      {"measurement": "Mean Platelet Volume", "setting": "day 12", "value": 9.6, "unit": "fL"},
      {"measurement": "Monocytes (%)", "setting": "day 12", "value": 11.1, "unit": "%"},
      {"measurement": "Monocytes (x 103/ul)", "setting": "day 12", "value": "1.5 x 103/ul"},
      {"measurement": "Platelets", "setting": "day 12", "value": 264000, "unit": "µL⁻¹"},
      {"measurement": "Red Cell Distribution Width", "setting": "day 12", "value": 20.2, "unit": "%"},
      {"measurement": "Reticulocytes", "setting": "day 12", "value": 3.8, "unit": "%"},
      {"measurement": "WEIGHT", "setting": "day 12", "value": 840, "unit": "g"},
      {"measurement": "Blood Urea Nitrogen", "setting": "day 15", "value": 13.8, "unit": "mg/dL"},
      {"measurement": "Creatine", "setting": "day 15", "value": 0.5, "unit": "mg/dL"},
      {"measurement": "Erythrocytes", "setting": "day 15", "value": "4.68e+06", "unit": "µL⁻¹"},
      {"measurement": "Glutamate Pyruvate Transaminase", "setting": "day 15", "value": 29.1, "unit": "U/L"},
      {"measurement": "Granulocytes (%)", "setting": "day 15", "value": 11.9, "unit": "%"},
      {"measurement": "Granulocytes (x 103/ul)", "setting": "day 15", "value": "3.4 x 103/ul"},
      {"measurement": "Hematocrit", "setting": "day 15", "value": 38.8, "unit": "%"},
      {"measurement": "Hemoglobin", "setting": "day 15", "value": 13.6, "unit": "g/dL"},
      {"measurement": "Leucocytes", "setting": "day 15", "value": 28300, "unit": "µL⁻¹"},
      {"measurement": "Lymphocytes (%)", "setting": "day 15", "value": 78.1, "unit": "%"},
      {"measurement": "Lymphocytes (x 103/ul)", "setting": "day 15", "value": "22.1 x 103/ul"},
      {"measurement": "Mean Corpuscular Hemoglobin", "setting": "day 15", "value": 29, "unit": "pg"},
      {"measurement": "Mean Corpuscular Volume", "setting": "day 15", "value": 83, "unit": "fL"},
      {"measurement": "Mean Hemoglobin Content", "setting": "day 15", "value": 34.9, "unit": "g/dL"},
      {"measurement": "Mean Platelet Volume", "setting": "day 15", "value": 12.8, "unit": "fL"},
      {"measurement": "Monocytes (%)", "setting": "day 15", "value": 10, "unit": "%"},
      {"measurement": "Monocytes (x 103/ul)", "setting": "day 15", "value": "2.8 x 103/ul"},
      {"measurement": "Platelets", "setting": "day 15", "value": 258000, "unit": "µL⁻¹"},
      {"measurement": "Red Cell Distribution Width", "setting": "day 15", "value": 23.1, "unit": "%"},
      {"measurement": "Reticulocytes", "setting": "day 15", "value": 2.6, "unit": "%"},
      {"measurement": "WEIGHT", "setting": "day 15", "value": 830, "unit": "g"},
      {"measurement": "Blood Urea Nitrogen", "setting": "day 18", "value": 15.2, "unit": "mg/dL"},
      {"measurement": "Creatine", "setting": "day 18", "value": 0.5, "unit": "mg/dL"},
      {"measurement": "Erythrocytes", "setting": "day 18", "value": "4.88e+06", "unit": "µL⁻¹"},
      {"measurement": "Glutamate Pyruvate Transaminase", "setting": "day 18", "value": 22.3, "unit": "U/L"},
      {"measurement": "Granulocytes (%)", "setting": "day 18", "value": 15.5, "unit": "%"},
      {"measurement": "Granulocytes (x 103/ul)", "setting": "day 18", "value": "2.7 x 103/ul"},
      {"measurement": "Hematocrit", "setting": "day 18", "value": 40.6, "unit": "%"},
      {"measurement": "Hemoglobin", "setting": "day 18", "value": 13.7, "unit": "g/dL"},
      {"measurement": "Leucocytes", "setting": "day 18", "value": 17100, "unit": "µL⁻¹"},
      {"measurement": "Lymphocytes (%)", "setting": "day 18", "value": 78, "unit": "%"},
      {"measurement": "Lymphocytes (x 103/ul)", "setting": "day 18", "value": "13.3 x 103/ul"},
      {"measurement": "Mean Corpuscular Hemoglobin", "setting": "day 18", "value": 28.1, "unit": "pg"},
      {"measurement": "Mean Corpuscular Volume", "setting": "day 18", "value": 83.2, "unit": "fL"},
      {"measurement": "Mean Hemoglobin Content", "setting": "day 18", "value": 33.8, "unit": "g/dL"},
      {"measurement": "Mean Platelet Volume", "setting": "day 18", "value": 12.1, "unit": "fL"},
      {"measurement": "Monocytes (%)", "setting": "day 18", "value": 6.5, "unit": "%"},
      {"measurement": "Monocytes (x 103/ul)", "setting": "day 18", "value": "1.1 x 103/ul"},
      {"measurement": "Platelets", "setting": "day 18", "value": 247000, "unit": "µL⁻¹"},
      {"measurement": "Red Cell Distribution Width", "setting": "day 18", "value": 22.6, "unit": "%"},
      {"measurement": "Reticulocytes", "setting": "day 18", "value": 2.2, "unit": "%"},
      {"measurement": "WEIGHT", "setting": "day 18", "value": 820, "unit": "g"},
      {"measurement": "Erythrocytes", "setting": "day 25", "value": "4.04e+06", "unit": "µL⁻¹"},
      {"measurement": "Granulocytes (%)", "setting": "day 25", "value": 11.4, "unit": "%"},
      {"measurement": "Granulocytes (x 103/ul)", "setting": "day 25", "value": "2.3 x 103/ul"},
      {"measurement": "Hematocrit", "setting": "day 25", "value": 34.8, "unit": "%"},
      {"measurement": "Leucocytes", "setting": "day 25", "value": 19900, "unit": "µL⁻¹"},
      {"measurement": "Lymphocytes (%)", "setting": "day 25", "value": 79.1, "unit": "%"},
      {"measurement": "Lymphocytes (x 103/ul)", "setting": "day 25", "value": "15.7 x 103/ul"},
      {"measurement": "Mean Corpuscular Hemoglobin", "setting": "day 25", "value": 27.6, "unit": "pg"}
    ]}
  ]
}
